Results published in ChEMBL document CHEMBL5055660, “In vitro activity of N-phenyl-1,10-phenanthroline-2-amines against tachyzoites and bradyzoites of Toxoplasma gondii” (Bioorg Med Chem, 2021).
Activity calls are given as the source filed them. No cut-off for these calls is given here.

Legend:
[1] = Selectivity index, ratio of CC50 for cytotoxicity against NHDF cells to ED50 for Anti-tachyzoite activity against RFP-expressing Toxoplasma gondii RH Type 1 infected in NHDF cells; type: toxicity, cell-based; conditions: human; read-out: Selectivity Index
[2] = test system: Toxoplasma gondii; assay: (§1) Anti-tachyzoite activity against RFP-expressing Toxoplasma gondii RH Type 1 infected in NHDF cells assessed as destruction of host cells at 2.5 uM incubated for 96 hrs followed by removal of medium containing compounds and subsequent addition of fresh medium without compounds and measured after 8 days by crystal violet staining based optical microscopic analysis; type: functional, organism-based
[3] = test system: Toxoplasma gondii; assay: Anti-tachyzoite activity against RFP-expressing Toxoplasma gondii RH Type 1 infected in NHDF cells assessed as inhibition of parasite proliferation measured after 72 hrs by fluorescence plate reader; type: functional; conditions: RH Type 1, NHDF, read-out: ED50 (the source's name)
[4] = test system: Toxoplasma gondii; assay: as §1, with “1.25” for “2.5”; type: functional, organism-based
[5] = test system: Toxoplasma gondii; assay: Anti-tachyzoite activity against RFP-expressing Toxoplasma gondii RH Type 1 infected in NHDF cells assessed as inhibition of parasite proliferation measured after 96 hrs by fluorescence plate reader; type: functional; conditions: RH Type 1, NHDF, read-out: ED50 (the source's name)
[6] = test system: Toxoplasma gondii; assay: Anti-bradyzoite activity against Toxoplasma gondii ESG reporter strain infected in NHDF cells assessed as cell lysis measured after 21 days; type: functional, organism-based; conditions: time 21.0 day
[7] = Cytotoxicity against NHDF cells assessed as reduction in cell viability measured after 96 hrs by MTS assay; type: cell-based; conditions: human
[8] = test system: Toxoplasma gondii; assay: Induction of vacuole formation in Toxoplasma gondii ESG reporter strain infected in NHDF cells assessed as increase in BAG positive vacuole number pretreated with PYR for 3 days followed by compound treatment and further incubated for 4 days; type: functional, organism-based; conditions: time 4.0 day
[9] = test system: Toxoplasma gondii; assay: as §1, with “5” for “2.5”; type: functional, organism-based
[10] = test system: Toxoplasma gondii; assay: as §1, with “inhibition” for “destruction”, “plaque formation” for “host cells”, “10” for “2.5”; type: functional, organism-based
[11] = test system: Toxoplasma gondii; assay: Anti-bradyzoite activity against Toxoplasma gondii ESG reporter stain infected in NHDF cells assessed as parasite proliferation at 10 uM measured after 30 days by optical microscopic analysis; type: functional, organism-based; conditions: time 30.0 day
[12] = test system: Toxoplasma gondii; assay: as §1, with “1” for “2.5”; type: functional, organism-based
[13] = test system: Toxoplasma gondii; assay: Induction of stage conversion in Toxoplasma gondii ESG reporter strain at 1 uM; type: functional, organism-based
[14] = test system: Toxoplasma gondii; assay: Anti-bradyzoite activity against Toxoplasma gondii ESG reporter stain infected in NHDF cells assessed as viable cells recovery causing host cell lysis at 1 uM measured after 15 days by optical microscopic analysis; type: functional, organism-based; conditions: time 15.0 day
[15] = test system: Toxoplasma gondii; assay: Induction of morphological changes in Toxoplasma gondii ESG reporter strain at 10 uM; type: functional, organism-based
[16] = test system: Toxoplasma gondii; assay: Anti-bradyzoite activity against Toxoplasma gondii ESG reporter strain infected in NHDF cells assessed as increase in BAG-positive vacuole number at 1.25 uM pretreated with PYR for 3 days followed by compound treatment and further incubated for 4 days; type: functional, organism-based; conditions: time 4.0 day
[17] = test system: Toxoplasma gondii; assay: as §1, with “plaque formation” for “destruction of host cells”, “0.625” for “2.5”; type: functional, organism-based
[18] = test system: Toxoplasma gondii; assay: as §1, with “inhibition” for “destruction”, “plaque formation” for “host cells”, “1.25” for “2.5”; type: functional, organism-based
[19] = test system: Toxoplasma gondii; assay: Anti-bradyzoite activity against Toxoplasma gondii ESG reporter stain infected in NHDF cells assessed as parasitic infection at 1.25 uM measured after 60 days by optical microscopic analysis; type: functional, organism-based; conditions: time 60.0 day
[20] = test system: Toxoplasma gondii; assay: Anti-bradyzoite activity against Toxoplasma gondii ESG reporter stain infected in NHDF cells assessed as viable cells recovery causing host cell lysis at 0.625 uM measured after 15 days by optical microscopic analysis; type: functional, organism-based; conditions: time 15.0 day
[21] = test system: Toxoplasma gondii; assay: Anti-bradyzoite activity against Toxoplasma gondii ESG reporter strain infected in NHDF cells assessed as morphological alteration at 1.25 uM measured after 5 days under alkaline condition by TEM analysis; type: functional, organism-based; conditions: time 5.0 day
[22] = test system: Toxoplasma gondii; assay: as §1, with “inhibition” for “destruction”, “plaque formation” for “host cells”, “0.625” for “2.5”; type: functional, organism-based
[23] = test system: Toxoplasma gondii; assay: (§2) Anti-tachyzoite activity against RFP-expressing Toxoplasma gondii RH Type 1 infected in NHDF cells assessed as inhibition of plaque formation at 1.25 uM when host cells pretreated for 3 days followed by infection and removal of medium containing compounds and subsequent addition of fresh medium without compounds and measured after 7 days by crystal violet staining based optical microscopic analysis; type: functional, organism-based; conditions: time 3.0 day
[24] = test system: Toxoplasma gondii; assay: Anti-bradyzoite activity against Toxoplasma gondii ESG reporter strain infected in NHDF cells assessed as induction of cyst formation measured after 5 days under alkaline condition by TEM analysis; type: functional, organism-based; conditions: time 5.0 day
[25] = test system: Toxoplasma gondii; assay: as §1, with “plaque formation” for “destruction of host cells”, “2” for “2.5”; type: functional, organism-based
[26] = test system: Toxoplasma gondii; assay: Induction of stage conversion in Toxoplasma gondii ESG reporter strain at 2 uM; type: functional, organism-based
[27] = test system: Toxoplasma gondii; assay: Anti-bradyzoite activity against Toxoplasma gondii ESG reporter stain infected in NHDF cells assessed as parasite proliferation at 4 uM measured after 30 days by optical microscopic analysis; type: functional, organism-based; conditions: time 30.0 day
[28] = test system: Toxoplasma gondii; assay: Anti-bradyzoite activity against Toxoplasma gondii ESG reporter strain infected in NHDF cells assessed as induced cyst formation at 2 uM measured after 5 days under alkaline condition by TEM analysis; type: functional, organism-based; conditions: time 5.0 day
[29] = test system: Toxoplasma gondii; assay: Anti-bradyzoite activity against Toxoplasma gondii ESG reporter stain infected in NHDF cells assessed as viable cells recovery causing host cell lysis at 2 uM measured after 15 days by optical microscopic analysis; type: functional, organism-based; conditions: time 15.0 day
[30] = test system: Toxoplasma gondii; assay: as §1, with “plaque formation” for “destruction of host cells”, “4” for “2.5”; type: functional, organism-based
[31] = test system: Toxoplasma gondii; assay: Anti-bradyzoite activity against Toxoplasma gondii ESG reporter strain infected in NHDF cells assessed as increase in BAG-positive vacuole number at 2 uM pretreated with PYR for 3 days followed by compound treatment and further incubated for 4 days; type: functional, organism-based; conditions: time 4.0 day
[32] = test system: Toxoplasma gondii; assay: Anti-bradyzoite activity against Toxoplasma gondii ESG reporter strain infected in NHDF cells assessed as cell lysis at 2 uM measured after 21 days; type: functional, organism-based; conditions: time 21.0 day
[33] = test system: Toxoplasma gondii; assay: Induction of stage conversion in Toxoplasma gondii ESG reporter strain at 4 uM; type: functional, organism-based
[34] = test system: Toxoplasma gondii; assay: as §1, with “as viable cells recovery causing” for “as destruction of”, “host cell lysis” for “host cells”, “at 5” for “at 2.5”, “analysis relative to control” for “analysis”; type: functional
[35] = test system: Toxoplasma gondii; assay: as §1, with “plaque formation” for “destruction of host cells”, “0.156” for “2.5”; type: functional, organism-based
[36] = test system: Toxoplasma gondii; assay: Induction of nuclear fragmentation in RFP-expressing Toxoplasma gondii RH Type 1 at 156 nM after 72 hrs by TEM analysis; type: functional, organism-based; conditions: NHDF
[37] = test system: Toxoplasma gondii; assay: Induction of mitochondria swelling in RFP-expressing Toxoplasma gondii RH Type 1 at 156 nM after 72 hrs by TEM analysis; type: functional, organism-based; conditions: NHDF
[38] = test system: Toxoplasma gondii; assay: Anti-bradyzoite activity against Toxoplasma gondii ESG reporter stain infected in NHDF cells assessed as parasite proliferation at 0.325 uM measured after 30 days by optical microscopic analysis; type: functional, organism-based; conditions: time 30.0 day
[39] = test system: Toxoplasma gondii; assay: as §2, with “0.312” for “1.25”; type: functional, organism-based; conditions: time 3.0 day
[40] = test system: Toxoplasma gondii; assay: Induction of cytoplasmic vacuolization in RFP-expressing Toxoplasma gondii RH Type 1 at 156 nM after 72 hrs by TEM analysis; type: functional, organism-based
[41] = test system: Toxoplasma gondii; assay: Anti-bradyzoite activity against Toxoplasma gondii ESG reporter strain infected in NHDF cells assessed as morphological alteration at 0.625 uM measured after 5 days under alkaline condition by TEM analysis; type: functional, organism-based; conditions: time 5.0 day
[42] = test system: Toxoplasma gondii; assay: Anti-bradyzoite activity against Toxoplasma gondii ESG reporter strain infected in NHDF cells assessed as increase in BAG-positive vacuole number at 0.625 uM pretreated with PYR for 3 days followed by compound treatment and further incubated for 4 days; type: functional, organism-based; conditions: time 4.0 day
[43] = test system: Toxoplasma gondii; assay: as §1, with “inhibition” for “destruction”, “plaque formation” for “host cells”, “0.312” for “2.5”; type: functional, organism-based
[44] = test system: Toxoplasma gondii; assay: Induction of cell death in RFP-expressing Toxoplasma gondii RH Type 1 assessed as DNA fragmentation at 156 nM after 72 hrs by immunoblotting analysis; type: functional, organism-based
[45] = test system: Toxoplasma gondii; assay: Anti-bradyzoite activity against Toxoplasma gondii ESG reporter stain infected in NHDF cells assessed as parasitic infection at 0.625 uM measured after 60 days by optical microscopic analysis; type: functional, organism-based; conditions: time 60.0 day

Row | Compound | selectivity ratio [1] | EC50 [3] [nM] | EC50 [5] [nM] | CC50 at 96 h [7] [nM] | Activity [8] | Activity [16] | Activity [18] | Activity [19] | further results
1 | N#Cc1cccc(Nc2ccc3ccc4cccnc4c3n2)c1 | 98 | 240 | 310 | 30500 | Active | – | – | – | Activity [2]: Active; Activity [4]: Active; Activity [6]: Active; Activity [9]: Active
2 | O=C1C(O)=C([C@H]2CC[C@H](c3ccc(Cl)cc3)CC2)C(=O)c2ccccc21 | – | – | – | – | – | – | – | – | Activity [10]: Active; Activity [11]: Active; Activity [12]: Active; Activity [6]: Active; Activity [13]: Active; Activity [14]: Active; Activity [15]: Active
3 | COc1ccc(Nc2ccc3ccc4cccnc4c3n2)cc1 | 63 | 310 | 290 | 18400 | – | Active | Active | inactive | Activity [17]: Active; Activity [20]: Active
4 | Clc1cccc(Nc2ccc3ccc4cccnc4c3n2)c1 | 42 | 360 | 580 | 24900 | Active | Active | Active | inactive | Activity [21]: Active; Activity [22]: Active; Activity [20]: Active; Activity [23]: Active; Activity [24]: Active
5 | CCc1nc(N)nc(N)c1-c1ccc(Cl)cc1 | – | – | – | – | – | – | – | – | Activity [25]: Active; Activity [26]: Active; Activity [27]: Active; Activity [12]: Active; Activity [28]: Active; Activity [29]: Active; Activity [30]: Active; Activity [31]: Active; Activity [13]: Active; Activity [32]: Active; Activity [33]: Active
6 | N#Cc1ccc(Nc2ccc3ccc4cccnc4c3n2)cc1 | 21 | 1060 | 1660 | 31000 | – | – | – | – | Activity [34]: 100%; Activity [6]: Active
7 | c1ccc(Nc2ccc3ccc4cccnc4c3n2)cc1 | 73 | 530 | 670 | 34600 | – | – | Active | – | –
8 | Fc1cccc(Nc2ccc3ccc4cccnc4c3n2)c1 | 75 | 270 | 330 | 24900 | Active | Active | Active | inactive | Activity [21]: Active; Activity [22]: Active; Activity [23]: Active; Activity [24]: Active
9 | c1cnc2c(c1)ccc1cccnc12 [PHENANTHROLINE] | 31 | 2010 | 2280 | 70200 | – | – | – | – | Activity [32]: Active
10 | Fc1ccc(Nc2ccc3ccc4cccnc4c3n2)cc1 | 96 | 250 | 310 | 26900 | – | Active | – | inactive | Activity [17]: Active; Activity [4]: Active
11 | COc1cccc(Nc2ccc3ccc4cccnc4c3n2)c1 | 111 | 250 | 340 | 37700 | – | Active | Active | inactive | Activity [17]: Active; Activity [23]: Active
12 | c1ccc2c(Nc3ccc4ccc5cccnc5c4n3)cccc2c1 | 114 | 240 | 150 | 11400 | Active | – | – | – | Activity [35]: Active; Activity [36]: Active; Activity [37]: Active; Activity [38]: Active; Activity [39]: Active; Activity [40]: Active; Activity [41]: Active; Activity [42]: Active; Activity [43]: Active; Activity [44]: Active; Activity [45]: inactive; Activity [24]: Active
